# Several values for one entry are separate records, joined by “and”; a condition that tells them apart may be missing. Equal entries are not always repeated. Where two headings read alike, the source gives them in different places.
# B1: Candida albicans phosphatidylserine synthase Cho1 (enzyme, UniProt A0A1D8PF32 1-273, looked up)
# chain: MSDSSATGFSKHQESAIVSDSEGDAIDSELHMSANPPLLRRSSSLFSLSSKDDLPKPDSKEYLKFIDDNRHFSMIRNLHMADFITLLNGFSGFYSIISCLRYTLTGQTHYVQRAHFFILLGLFFDFFDGRVARLRNKSSLMGQELDSLADLVSFGVSPATIAFAIGFRTTVDVLFLAFWVLCGLTRLARFNISVNNIPKDKHGKSQYFEGLPIPTNLFWVGFMALLVYKDWIHDNLPFGIVFQDTSFEFHLVTIGFVLQGCAEISKSLKIPKP
# notes: Cho1, phosphatidylserine synthase (EC 2.7.8.8) of Candida albicans, CHO1 gene expressed from the TEF1 promoter; A TEV site (ENLYFQG) lies between Cho1 and the HAx3-HISx8 tag; The forward cloning primer begins at the ATG of CHO1; also called PS synthase; CDP-diacylglycerol-serine O-phosphatidyltransferase; not shown: HAx3, C-terminal, cleaved; His8, C-terminal, cleaved
# What was measured:
# [1] = precipitation in MIC media; type: physicochemical
# [2] = tested on: wild-type C. albicans strain SC5314; assay: CLSI MIC broth microdilution; type: cell-based, Candida albicans; details: for MIC: Candida albicans; for effect on cell growth in all three media: even at 250 µM
# Experimental: We then tested the effects of the six compounds on live cells by determining the minimal inhibitory concentrations (MICs) of these compounds. Following the standard Clinical & Lab Standards Institute (CLSI) MIC broth microdilution methods, wild-type C. albicans strain SC5314 was grown with avasimibe, CBR-5884, tideglusib, ebselen, ML-345, and LOC14 in RPMI MOPS medium (pH 7.0) or alternatively in minimal medium or minimal medium with HEPES (pH 7.0) at 37°C for 48 h, along with a cho1ΔΔ strain as a control (Fig. 3A through C). The concentration of the compounds was varied from 0.5 to 250 µM. […] Ebselen, LOC14, and CBR-5884, on the contrary, stopped cell growth at different concentrations in all three media, with MICs ranging between 7.8 and 31.3 μM (Fig. 3A through D). […] Specific MIC values are summarized in Fig. 3D for all the compounds.
# Minimum inhibitory concentration (MIC) was determined following Clinical & Lab Standards Institute (CLSI) MIC broth microdilution protocol (Licensed to Todd Reynolds, license # Ord-1138682) ([98], [99]). Briefly, stock solutions of different compounds (purchased from MedChemExpress) were prepared at a concentration of 10 mM in DMSO and subsequently diluted as required in the same solvent. Wild-type C. albicans strain SC5314, as well as four additional wild-type strains—GDH2346, 3153A, TFPY412, and TFPY2307, were cultured overnight in YPD medium at 30°C, washed with water three times, and then diluted to a concentration of 2 × 10^3 cells/mL (OD600 = 0.00008) in one of the three media [minimal medium, minimal medium buffered with 50 mM HEPES (pH 7.0) and RPMI MOPS (pH 7.0)]. The cho1ΔΔ strain was also included as a control. A volume of 100 µL from each cell suspension was dispensed into the wells of a flat-bottom 96-well plate. An additional 100 µL of corresponding medium, containing twice the final desired concentration of each drug, was added to each well, leading to a final initial inoculum of 1 × 10^3 cells/mL (OD600 = 0.00004). The final DMSO concentration was maintained at 2.5% across all treatments. Following preparation, the plates were incubated at 37°C for 48 h and photos were taken with a Bio-Rad Gel Doc XR + Imaging System.
# [3] = target: purified C. albicans Cho1 (phosphatidylserine synthase) (Candida albicans, UniProt A0A1D8PF32); assay: malachite-green-based nucleotidase-coupled assay, dose-response; type: biochemical; details: top 200 µM, 3 h at 30°C, three replicates
# Experimental: A malachite-green-based nucleotidase-coupled assay was used to measure the PS synthesis activity of Cho1 (Fig. 1B). Cho1 catalyzes the production of PS and cytidylmonophosphate (CMP) from CDP-DAG and serine, where CMP can then be recognized and cleaved by the nucleotidase CD73 to release inorganic phosphate, which is subsequently detected by malachite green. To test whether this malachite-green-based assay can reflect Cho1 activity, a time-course test was performed with a fixed amount of purified Cho1 in the presence of substrates (Fig. 1C).
# The bioactives library was purchased from Selleck in 2014, and the remaining libraries (anti-infectives and mechanism of action libraries) were assembled from compounds available at the Chemical Biology and Therapeutics Department at St. Jude Children’s Research Hospital. The anti-infectives library contains a curated list of antimicrobials and antiviral agents ([95]). The bioactive library has a compilation of compounds acquired from commercial sources and external academic collaborators. The mechanism of action set is a dynamic set of well-annotated compounds with comprehensive coverage of human targets and mechanisms of action ([96]). All compounds were dissolved in DMSO and 100 nL was transferred to a 384-well clear bottom plate (ThermoFisher Scientific, cat# 265203) using a Beckman Echo 650 acoustic liquid handler. Equal volumes of either the selective CD73 nucleotidase inhibitor AB680 at a final concentration of 1 µM (MedChemExpress, cat# HY-125286) or DMSO were used as positive and negative controls, respectively. A total of 30–35 ng of purified Cho1 protein was used in each reaction in 50 mM Tris-HCl (pH 8.0) for primary screening, combined with 100 µM CDP-DAG (Avanti, cat# 870510), 5 mM serine, 0.4 ng CD73 nucleotidase (R&D systems, cat# EA002), 1 mM MnCl2, 0.1% APX-100, and 0.1% digitonin, in a total volume of 10 µL. Counter screen reactions were set up by replacing only the purified Cho1 with 150 µM CMP, with all other components remaining constant. The 10 µL primary and counter screening reactions were delivered to each well of 384-well assay plates containing pre-aliquoted compounds from the library using a Multidrop Combi (ThermoFisher Scientific). […] After media transfer, assay plates were incubated for 3 h at 30°C. Plates were then removed and 32 µL of malachite green mixture [6 µL malachite A (2%, wt/vol, ammonium molybdate and 20%, vol/vol, sulfuric acid in H2O) +20 µL H2O + 6 µL malachite B (0.1%, wt/vol, malachite green oxalate and 0.5%, wt/vol, polyvinyl alcohol in H2O)] were added to each well via a MultiDrop Combi and incubated for an additional 10 min at room temperature. After incubation, plates were briefly centrifuged at 500 × g and absorbance at 620 nm was then measured using a Cytation7 plate reader (Biotek, Winooski, VT). Raw absorbance values of the compounds were normalized to DMSO (0% inhibition) and AB680 (100% inhibition) from both primary and counter screens, and % Δinhibition was calculated by […]. Z-factors for each plate were calculated using the in-house program RISE (Robust Investigation of Screening Experiments). All non-PAINs compounds that had >80% Δinhibition progressed to dose-response testing (82 total compounds). Dose-response experiments were performed in triplicate as described above using a 10-point, threefold serial dilution with the top concentration for each compound tested being 200 µM (range: 0.010161–200 μM). The absorbance at 620 nm was then measured using a PHERAstar FS multilabel reader (BMG, Cary, NC). Raw values were once again normalized to DMSO (0% inhibition) and AB680 (100% inhibition) and Z-factors for each plate were calculated using RISE. […]
# [4] = target: the molecule itself; assay: native gel or EMSA; blue native PAGE of purified tag-free Cho1 in digitonin, stained with Coomassie Blue R-250; MW estimated with the band analysis tool of Quantity One
# [5] = SC5314, RPMI MOPS pH 7.0, 37°C, 48 h, read-out: Minimal Inhibitory Concentration (MIC): RPMI, MOPS 7.0
# [6] = SC5314, minimal medium with 50 mM HEPES pH 7.0, 37°C, 48 h, read-out: Minimal Inhibitory Concentration (MIC): MM, HEPES 7.0
# [7] = SC5314, minimal medium, 37°C, 48 h, read-out: Minimal Inhibitory Concentration (MIC): MM
# [8] = 10-point dose-response, read-out: Best-fit IC50, inhibition of Cho1
Molecule,"MIC [2, 5]","MIC [2, 6]","MIC [2, 7]",effect on cell growth in all three media [2],"IC50 [3, 8]",other results
O=c1sn(-c2cccc3ccccc23)c(=O)n1Cc1ccccc1 [Tideglusib],> 500 µM,> 500 µM,> 500 µM,did not affect cell growth,,"solubility in MIC media ([1]; concentrations 0.5 to 250 µM): precipitated at high concentrations; IC50 ([3]; Best-fit IC50, inhibition of Cho1, 10-point dose-response): ≤ 20 µM and ~8.53 µM"
O=c1c2cc(F)ccc2sn1-c1cc(S(=O)(=O)N2CCOCC2)ccc1N1CCOCC1 [ML-345],,,,,≤ 20 µM and ~15.5 µM,"MIC ([2]; SC5314, 48 h, pH 7, read-out: Minimal Inhibitory Concentration (MIC): MM, HEPES 7.0): > 500 µM; MIC ([2]; SC5314, 48 h, pH 7, read-out: Minimal Inhibitory Concentration (MIC): RPMI, MOPS 7.0): 31.3 µM; MIC ([2]; SC5314, 48 h, read-out: Minimal Inhibitory Concentration (MIC): MM): > 500 µM; effect on cells grown in the minimal media ([2]; minimal media): had no effect"
c1ccc(Nc2nc3c(s2)CCCc2[nH]ncc2-3)nc1 [TC-N 22A],,,,,~65.3 µM,
CC(C)c1cc(C(C)C)c(CC(=O)NS(=O)(=O)Oc2c(C(C)C)cccc2C(C)C)c(C(C)C)c1 [Avasimibe],> 500 µM,> 500 µM,> 500 µM,did not affect cell growth,~23.4 µM,solubility in MIC media [1]: precipitated at high concentrations
B1,,,,,,stoichiometry N [4]: 6

# Reference: PMC11077991, “The small molecule CBR-5884 inhibits the Candida albicans phosphatidylserine synthase” (mBio, 2024)
